Patent US20230278958A1 (Merck Patent GmbH, priority 2020, published 2023)

Tests used:
[1] = system: YAP-TEAD interaction; assay: SK-HEP-1 reporter assay (8x TEAD responsive elements driving NanoLuc luciferase); type: cell-based; details: Homo sapiens, SK-HEP1; SK-HEP-1 TEAD-NanoLuc reporter cells, 24 hour incubation, luciferase readout
Method: To identify inhibitors of YAP-TEAD interaction, 8× TEAD responsive elements driving the NanoLuc® luciferase gene were stably integrated into SK-HEP-1 cells (ECACC #: 91091816).
For the assay, cells were treated in duplicates with the test compounds in a 10-point dose, with the top concentration starting at 30 μM (final concentration in assay). After a 24 hour incubation at 37° C., 95% rH, and 5% CO2, a luciferase substrate/lysis reagent mix (NanoGlo™, Promega) was added to the cells, allowing the quantification of cellular luciferase activity.
Cell Media: The cells were cultured in the following media: MEM, +10% FBS, +1× GlutaMAX, +1 mM Sodium-Pyruvate, +100 μM Non-essential amino acids, +0.1 mg/ml Hygromycin. The media used for the assay was: MEM (w/o Phenol Red), +10% FBS, +1× GlutaMAX, +1 mM Sodium-Pyruvate, +100 μM Non-essential amino acids, +0.5% Pen/Strep
(§1) Reagents: The reagents used are listed below:
(§2) Cell culture: The cells were examined using an inverted microscope to check for health and cell density. To dissociate adherent cells, the monolayer of cells was washed once with pre-warmed PBS. After removing the PBS, 3 ml pre-warmed Accutase® was added to a F75 flask, dispersed evenly and the flask was allowed to sit in incubator for ˜4-5 minutes.
(§3) When a single cell suspension was obtained, 7 ml of prewarmed growth media was added and resuspended with the cells. The cell suspension was transferred to a sterile 15 ml conical centrifuge tube, and spun for 5 min at 300×g, RT. The supernatant was discarded and the pellet was resuspended in 10 ml of pre-warmed growth media.
(§4) The total cell count was determined, and 20 μl of the desired cell number was added to each well of a 384 well plate using a Multidrop Combi. The plates were then incubated for 24 hours at 37° C., 95% rH, and 5% CO2.
(§5) Compound treatment: 24 hours after seeding, the cells were treated with compounds.
(§6) A 1:333 dilution of compounds, diluted in DMSO, was made to get a final concentration of 0.3% DMSO per well. To transfer the compounds to the assay plate, 120 nl was shot from Labcyte low dead volume plates to the cell plates containing 20 μl media/well with the ECHO 555 liquid handling system.
(§7) After treatment, the cells were fed with 20 μl fresh pre-warmed assay media using a Multidrop combi.
The assay plates were then incubated for another 24 h at 37° C., 95% rH, and 5% CO2.
Luciferase readout: 24 h after treatment, the plates were taken out of the incubator and were allowed to equilibrate to RT. 30 μl of NanoGlo® reagent was added to the plates in the dark. Plates were shaken for 20 min on a Teleshake (˜1500 rpm) in the dark. The luminescence was then measured using an EnVision microplate reader. The IC50 values were generated using Genedata Screener®.
Experimental data in SK-HEP-1 reporter assay of the compounds shown in Table 1 are shown in Table 2 below and classified in the following groups: […]

[2] = system: NCI-H226 cells; assay: Viability assay in NCI-H226 (Yap-dependent) cells, CyQUANT; type: cell-based; details: Homo sapiens, 96 hour incubation
Method: The ability of YAP-TEAD inhibitors to inhibit tumor cell growth was evaluated using two different cell lines: NCI-H226, which is a YAP dependent cell line, and SW620 cells, where YAP and TAZ were knocked out using CRISPR to generate a YAP independent cell line.
For the assay, cells were treated in duplicates with the test compounds in a 10-point dose, 1:3 dilution steps, with the top concentration starting at 30 μM (final concentration in assay). After a 96 hour incubation at 37° C., 95% rH, and 5% CO2, a cell-permeant DNA-binding dye that stains only healthy cells (CyQUANT®, Promega) was added to the cells, allowing the quantification of cell viability.
Cell Media: The NCI-H226 cells were cultured in the following media: RPMI 1640, +10% FBS, +1× GlutaMAX, +10 mM HEPES, +0.5% Pen/Strep. The SW620-KO cells were cultured in the following media: DMEM/F-12, +10% FBS, +1× GlutaMAX, +10 mM HEPES, +0.5% Pen/Strep.
as §1
as §2, with “health,” for “health and”, “density, etc.” for “density.”, “Accutase” for “Accutase®”
as §3, §4, §5, §6, §7
The assay plates were then incubated for 96 h at 37° C., 95% rH, and 5% CO2.
96h after treatment 30 μl of CyQuant® reagent was added to the assay plates using a Multidrop combi in the dark. The plates were then incubated for 1 hour at 37° C., 95% rH and 5% CO2. Thereafter, the assay plates were removed from the incubator and allowed to equilibrate to RT for 30 min in the dark without lid. Finally, they were measured using an EnVision microplate reader with a FITC bottom read program.
Experimental data in the Viability assay of the compounds shown in Table 1 are shown in Table 3 below and classified in the following groups: […]

Cc1ccc2c(n1)c1cc(C(N)=O)ccc1n2-c1ccc(C(F)(F)F)cc1 [Compound 67, 2-methyl-5-[4-(trifluoromethyl)phenyl]-5H-pyrido[3,2-b]indole-8-carboxamide]
IC50 [1]: 10 to 100 nM

Cc1ccc2c(c1)c1cc(C(=O)NCc3cccnc3)ccc1n2-c1ccc(C(F)(F)F)cc1 [Compound 52, 6-methyl-N-[(pyridin-3-yl)methyl]-9-[4-(trifluoromethyl)phenyl]-9H-carbazole-3-carboxamide]
IC50 [1]: 100 to 1000 nM | IC50 [2]: 0.001 to 0.1 µM

Cc1ccc2c(c1)c1cc(C(=O)O)ccc1n2-c1ccc(OC(F)(F)F)cc1 [Compound 63, 6-methyl-9-[4-(trifluoromethoxy)phenyl]-9H-carbazole-3-carboxylic acid]
IC50 [1]: 1 to 10 nM | IC50 [2]: 1 to 10 µM

COCCC(CO)NC(=O)c1ccc2c(c1)c1cc(C)ccc1n2-c1ccc(C(F)(F)F)cc1 (stereo not drawn) [Compound 61, N-(1-hydroxy-4-methoxybutan-2-yl)-6-methyl-9-[4-(trifluoromethyl)phenyl]-9H-carbazole-3-carboxamide]
IC50 [1]: 100 to 1000 nM | IC50 [2]: 0.1 to 1 µM

Cc1cc2c3cc(C(=O)NC4CC4)ccc3n(-c3ccc(C(F)(F)F)cc3)c2cc1C [Compound 70, N-cyclopropyl-6,7-dimethyl-9-[4-(trifluoromethyl)phenyl]-9H-carbazole-3-carboxamide]
IC50 [1]: 10 to 100 nM

Cc1ccc2c(c1)c1cc(C(=O)NC3(CO)CCC3)ccc1n2-c1ccc(C(F)(F)F)cc1 [Compound 54, N-[1-(hydroxymethyl)cyclobutyl]-6-methyl-9-[4-(trifluoromethyl)phenyl]-9H-carbazole-3-carboxamide]
IC50 [1]: 100 to 1000 nM | IC50 [2]: 0.1 to 1 µM

O=C(O)c1ccc2c(c1)c1cc(Cc3ccccc3F)ccc1n2-c1ccc(C(F)(F)F)cc1 [Compound 3, 6-[(2-fluorophenyl)methyl]-9-[4-(trifluoromethyl)phenyl]-9H-carbazole-3-carboxylic acid]
IC50 [1]: 100 to 1000 nM | IC50 [2]: 1 to 10 µM

Cc1ccc2c(c1)c1cc(C(=O)NCCn3ccnc3)ccc1n2-c1ccc(C(F)(F)F)cc1 [Compound 44, 6-Methyl-9-(4-trifluoromethyl-phenyl)-9H-carbazole-3-carboxylic acid (2-imidazol-1-yl-ethyl)-amide]
IC50 [1]: 100 to 1000 nM | IC50 [2]: 0.1 to 1 µM

Cc1ccc2c(c1)c1cc(C(=O)N3CCC(O)C3)ccc1n2-c1ccc(C(F)(F)F)cc1 (stereo not drawn) [Compound 49, 1-{6-methyl-9-[4-(trifluoromethyl)phenyl]-9H-carbazole-3-carbonyl}pyrrolidin-3-ol]
IC50 [1]: 100 to 1000 nM | IC50 [2]: 0.1 to 1 µM

Cc1ccc2c(c1)c1cc(C(=O)N[C@H](c3ccccc3)[C@H](C)O)ccc1n2-c1ccc(C(F)(F)F)cc1 [Compound 58, N-[(1R,2S)-2-hydroxy-1-phenylpropyl]-6-methyl-9-[4-(trifluoromethyl)phenyl]-9H-carbazole-3-carboxamide]
IC50 [1]: 100 to 1000 nM | IC50 [2]: 0.1 to 1 µM

Cc1ccc2c(c1)c1cc(C(=O)NC[C@@H](O)CO)ccc1n2-c1ccc(C(F)(F)F)cc1 (single isomer, unassigned) [Compound 68, N-[(2R or 2S)-2,3-dihydroxypropyl]-6-methyl-9-[4-(trifluoromethyl)phenyl]-9H-carbazole-3-carboxamide]
IC50 [1]: 10 to 100 nM

Cc1ccc2c(c1)c1cc(C(=O)N3CCCC(O)C3)ccc1n2-c1ccc(C(F)(F)F)cc1 (stereo not drawn) [Compound 50, 1-{6-methyl-9-[4-(trifluoromethyl)phenyl]-9H-carbazole-3-carbonyl}piperidin-3-ol]
IC50 [1]: 100 to 1000 nM | IC50 [2]: 0.1 to 1 µM

Cc1ccc2c(c1)c1cc(C(=O)N[C@H](C)CO)ccc1n2-c1ccc(C(F)(F)F)cc1 [Compound 71, N-[(2R)-1-hydroxypropan-2-yl]-6-methyl-9-[4-(trifluoromethyl)phenyl]-9H-carbazole-3-carboxamide]
IC50 [1]: 100 to 1000 nM

Cc1ccc2c(c1)c1cc(C(=O)NCC(O)C(F)(F)F)ccc1n2-c1ccc(C(F)(F)F)cc1 (stereo not drawn) [Compound 60, 6-methyl-N-(3,3,3-trifluoro-2-hydroxypropyl)-9-[4-(trifluoromethyl)phenyl]-9H-carbazole-3-carboxamide]
IC50 [1]: 100 to 1000 nM

CNC(=O)c1ccc2c(c1)c1cc(C)c(C)cc1n2-c1ccc(C(F)(F)F)cc1 [Compound 74, N,6,7-trimethyl-9-[4-(trifluoromethyl)phenyl]-9H-carbazole-3-carboxamide]
IC50 [1]: 1 to 10 nM

O=C(O)c1cc2c3ccccc3n(Cc3ccc(C(F)(F)F)cc3)c2cn1 [Compound 32, 9-{[4-(trifluoromethyl)phenyl]methyl}-9H-pyrido[3,4-b]indole-3-carboxylic acid]
IC50 [1]: > 1000 nM

Cc1ccc2c(c1)c1cc(C(=O)N[C@@H](C)CO)ccc1n2-c1ccc(C(F)(F)F)cc1 [Compound 72, N-[(2S)-1-hydroxypropan-2-yl]-6-methyl-9-[4-(trifluoromethyl)phenyl]-9H-carbazole-3-carboxamide]
IC50 [1]: 100 to 1000 nM

Cc1ccc2c(c1)c1cc(C(=O)NCc3ncccn3)ccc1n2-c1ccc(OC(F)(F)F)cc1 [Compound 65, 6-methyl-N-[(pyrimidin-2-yl)methyl]-9-[4-(trifluoromethoxy)phenyl]-9H-carbazole-3-carboxamide]
IC50 [1]: > 1000 nM

Cc1ccc2c(c1)c1cc(C(=O)NCc3cnccn3)ccc1n2-c1ccc(OC(F)(F)F)cc1 [Compound 66, 6-methyl-N-[(pyrazin-2-yl)methyl]-9-[4-(trifluoromethoxy)phenyl]-9H-carbazole-3-carboxamide]
IC50 [1]: > 1000 nM

Cc1cc2c3cc(C(N)=O)ccc3n(-c3ccc(C(F)(F)F)cc3)c2cc1C [Compound 76, 6,7-dimethyl-9-[4-(trifluoromethyl)phenyl]-9H-carbazole-3-carboxamide]
IC50 [1]: 10 to 100 nM

Cc1ccc2c(c1)c1cc(C(=O)NC[C@H](O)CO)ccc1n2-c1ccc(C(F)(F)F)cc1 (single isomer, unassigned) [Compound 69, N-[(2S or 2R)-2,3-dihydroxypropyl]-6-methyl-9-[4-(trifluoromethyl)phenyl]-9H-carbazole-3-carboxamide]
IC50 [1]: 100 to 1000 nM

Cc1cc2c3cc(C(=O)NCCO)ccc3n(-c3ccc(C(F)(F)F)cc3)c2cc1C [Compound 75, N-(2-hydroxyethyl)-6,7-dimethyl-9-[4-(trifluoromethyl)phenyl]-9H-carbazole-3-carboxamide]
IC50 [1]: 10 to 100 nM

Cc1ccc2c(c1)c1cc(C(=O)NCc3ccncn3)ccc1n2-c1ccc(OC(F)(F)F)cc1 [Compound 73, 6-methyl-N-[(pyrimidin-4-yl)methyl]-9-[4-(trifluoromethoxy)phenyl]-9H-carbazole-3-carboxamide]
IC50 [1]: > 1000 nM

Cc1ccc2c(c1)c1cc(C(=O)NCc3ccccn3)ccc1n2-c1ccc(OC(F)(F)F)cc1 [Compound 64, 6-methyl-N-[(pyridin-2-yl)methyl]-9-[4-(trifluoromethoxy)phenyl]-9H-carbazole-3-carboxamide]
IC50 [1]: > 1000 nM
